According to PubChem BioAssay AID1963838 (Molecular Pharmacology Branch, DTP, NCI, 2024):

Test system: 855422-203-R-J1-PDC complex spheroid viability
Assay: Anticancer human tumor 855422-203-R-J1-PDC patient-derived bladder carcinoma cell line growth inhibition [POLQ]
Conditions: for IC50: curve of first compound; for viability, T/C: stronger effect = lower value; active means viability on the fitted dose curve at most 10% of control; inactive means the rest
How it was run: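 Three-cell-type spheroids modelling solid tumor plus stroma served as the readout system; POL inhibitors were tested individually and in combination, concentration ranges set by clinical Cmax where known.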

[1] = second compound 0.0316 µM, first compound 0.0316 µM
[2] = second compound 0.0316 µM, first compound 0.1 µM
[3] = second compound 0.0316 µM, first compound 0.316 µM
[4] = second compound 0.0316 µM, first compound 1 µM
[5] = second compound 0.1 µM, first compound 0.0316 µM
[6] = second compound 0.1 µM, first compound 0.1 µM
[7] = second compound 0.1 µM, first compound 0.316 µM
[8] = second compound 0.1 µM, first compound 1 µM
[9] = second compound 0.316 µM, first compound 0.0316 µM
[10] = second compound 0.316 µM, first compound 0.1 µM
[11] = second compound 0.316 µM, first compound 0.316 µM
[12] = second compound 0.316 µM, first compound 1 µM
[13] = second compound 1 µM, first compound 0.0316 µM
[14] = second compound 1 µM, first compound 0.1 µM
[15] = second compound 1 µM, first compound 0.316 µM
[16] = second compound 1 µM, first compound 1 µM
[17] = second compound 3.16 µM, first compound 0.0316 µM
[18] = second compound 3.16 µM, first compound 0.1 µM
[19] = second compound 3.16 µM, first compound 0.316 µM
[20] = second compound 3.16 µM, first compound 1 µM
[21] = second compound 10 µM, first compound 0.0316 µM
[22] = second compound 10 µM, first compound 0.1 µM
[23] = second compound 10 µM, first compound 0.316 µM
[24] = second compound 10 µM, first compound 1 µM
[25] = second compound 0.0316 µM, first compound 3.16 µM
[26] = second compound 0.0316 µM, first compound 10 µM
[27] = second compound 0.1 µM, first compound 3.16 µM
[28] = second compound 0.1 µM, first compound 10 µM
[29] = second compound 0.316 µM, first compound 3.16 µM
[30] = second compound 0.316 µM, first compound 10 µM
[31] = second compound 1 µM, first compound 3.16 µM
[32] = second compound 1 µM, first compound 10 µM
[33] = second compound 3.16 µM, first compound 3.16 µM
[34] = second compound 3.16 µM, first compound 10 µM
[35] = second compound 10 µM, first compound 3.16 µM
[36] = second compound 10 µM, first compound 10 µM
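Further: spheroids exposed to compounds for seven days before readout.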

C=CCn1c(=O)c2cnc(Nc3ccc(N4CCN(C)CC4)cc3)nc2n1-c1cccc(C(C)(C)O)n1 + Nc1ccc(C#CCN(C(=O)Cc2ncc(C(F)(F)F)cc2C(F)(F)F)c2ccc(F)cc2)nn1
inactive: viability, T/C (second compound 0.0316 µM, first compound 0.00316 µM) 96.4% | viability, T/C (second compound 0.0316 µM, first compound 0.01 µM) 152% | viability, T/C [1] 113% | viability, T/C [2] 85.5% | viability, T/C [3] 113% | viability, T/C [4] 204% | viability, T/C (second compound 0.1 µM, first compound 0.00316 µM) 97% | viability, T/C (second compound 0.1 µM, first compound 0.01 µM) 127% | viability, T/C [5] 110% | viability, T/C [6] 101% | viability, T/C [7] 114% | viability, T/C [8] 160% | viability, T/C (second compound 0.316 µM, first compound 0.00316 µM) 110% | viability, T/C (second compound 0.316 µM, first compound 0.01 µM) 134% | viability, T/C [9] 102% | viability, T/C [10] 107% | viability, T/C [11] 110% | viability, T/C [12] 219% | viability, T/C (second compound 1 µM, first compound 0.00316 µM) 94.4% | viability, T/C (second compound 1 µM, first compound 0.01 µM) 144% | viability, T/C [13] 103% | viability, T/C [14] 112% | viability, T/C [15] 118% | viability, T/C [16] 193% | viability, T/C (second compound 3.16 µM, first compound 0.00316 µM) 102% | viability, T/C (second compound 3.16 µM, first compound 0.01 µM) 112% | viability, T/C [17] 107% | viability, T/C [18] 115% | viability, T/C [19] 126% | viability, T/C [20] 198% | viability, T/C (second compound 10 µM, first compound 0.00316 µM) 104% | viability, T/C (second compound 10 µM, first compound 0.01 µM) 101% | viability, T/C [21] 96.9% | viability, T/C [22] 122% | viability, T/C [23] 109% | viability, T/C [24] 161%
> 1 µM: IC50 (second compound 0.0316 µM) | IC50 (second compound 0.1 µM) | IC50 (second compound 0.316 µM) | IC50 (second compound 1 µM) | IC50 (second compound 3.16 µM) | IC50 (second compound 10 µM)

CC1COCCN1c1cc(C2(S(C)(=N)=O)CC2)nc(-c2ccnc3[nH]ccc23)n1 (stereo unspecified) + Nc1ccc(C#CCN(C(=O)Cc2ncc(C(F)(F)F)cc2C(F)(F)F)c2ccc(F)cc2)nn1
5.25 µM: IC50 (second compound 0.0316 µM)
3.92 µM: IC50 (second compound 0.1 µM)
3.4 µM: IC50 (second compound 1 µM)
2.53 µM: IC50 (second compound 10 µM)
3.05 µM: IC50 (second compound 0.316 µM)
2.89 µM: IC50 (second compound 3.16 µM)
inactive: viability, T/C [1] 104% | viability, T/C [2] 98.9% | viability, T/C [3] 132% | viability, T/C [4] 98.2% | viability, T/C [25] 78.2% | viability, T/C [26] 14.9% | viability, T/C [5] 111% | viability, T/C [6] 124% | viability, T/C [7] 99.8% | viability, T/C [8] 187% | viability, T/C [27] 57.6% | viability, T/C [28] 16.6% | viability, T/C [9] 95.4% | viability, T/C [10] 111% | viability, T/C [11] 102% | viability, T/C [12] 180% | viability, T/C [29] 47.8% | viability, T/C [30] 13.9% | viability, T/C [13] 93.3% | viability, T/C [14] 108% | viability, T/C [15] 116% | viability, T/C [16] 144% | viability, T/C [31] 52.4% | viability, T/C [32] 14.1% | viability, T/C [17] 111% | viability, T/C [18] 91.7% | viability, T/C [19] 119% | viability, T/C [20] 189% | viability, T/C [33] 43.2% | viability, T/C [34] 11.3% | viability, T/C [21] 97.7% | viability, T/C [22] 96.1% | viability, T/C [23] 113% | viability, T/C [24] 152% | viability, T/C [35] 34.3% | viability, T/C [36] 11.3%

CCCS(=O)(=O)Nc1ccc(F)c(C(=O)c2c[nH]c3ncc(-c4ccc(Cl)cc4)cc23)c1F + Nc1ccc(C#CCN(C(=O)Cc2ncc(C(F)(F)F)cc2C(F)(F)F)c2ccc(F)cc2)nn1
6.2 µM: IC50 (second compound 0.316 µM)
inactive: viability, T/C [1] 101% | viability, T/C [2] 116% | viability, T/C [3] 92.3% | viability, T/C [4] 103% | viability, T/C [25] 112% | viability, T/C [5] 99% | viability, T/C [6] 117% | viability, T/C [7] 109% | viability, T/C [8] 107% | viability, T/C [27] 103% | viability, T/C [9] 116% | viability, T/C [10] 113% | viability, T/C [11] 93.1% | viability, T/C [12] 106% | viability, T/C [29] 109% | viability, T/C [13] 106% | viability, T/C [14] 106% | viability, T/C [15] 96.2% | viability, T/C [16] 106% | viability, T/C [31] 109% | viability, T/C [17] 93.5% | viability, T/C [18] 108% | viability, T/C [19] 101% | viability, T/C [20] 101% | viability, T/C [33] 103% | viability, T/C [21] 94% | viability, T/C [22] 102% | viability, T/C [23] 101% | viability, T/C [24] 112% | viability, T/C [35] 99.8%
5.98 µM: IC50 (second compound 1 µM)
5.88 µM: IC50 (second compound 0.1 µM)
6.02 µM: IC50 (second compound 3.16 µM)
5.93 µM: IC50 (second compound 0.0316 µM)
5.89 µM: IC50 (second compound 10 µM)
active: viability, T/C [26] 4.15% | viability, T/C [28] 4.49% | viability, T/C [30] 9.19% | viability, T/C [32] 5.86% | viability, T/C [34] 9.79% | viability, T/C [36] 7.62%
